Test results published in patent publication US10562842B2, “Use of polyaminoisoprenyl derivatives in antibiotic or antiseptic treatment” (UNIVERSITE D'AIX-MARSEILLE, priority 2011, dated 2020).

Key:
CHO cells = test: Toxicity on CHO cultured cells; assay type: cell-based; details: for IC50: Cricetulus griseus, killing of 50% of the CHO cells after 24 hours of incubation
Procedure: The toxicity of each compound was determined on CHO cultured cells. Incubation of CHO cells was performed with serial dilution of compounds. The compounds are either solubilized in DMSO or in PBS. The IC50 corresponds to the concentration of compounds leading to a killing of 50% of the CHO cells after 24 hours of incubation.

[1] = test system: Enterobacter aerogenes MDR Ea289; test: MIC of antibiotics ± test compound (MIC ratio), micro-broth dilution; assay type: cell-based; details: for efficient concentration, times lower than the control PAβN: chloramphenicol MIC ratio of 8 on Ea289; for activity, effective concentration compared with PAβN to reach a MIC ratio of 8: chloramphenicol on Ea289; for Effective concentration (mM) for a MIC ratio of chloramphenicol ≥ 8 on Ea289 / MIC ratio (*) on Ea289 Chl: chloramphenicol; for MIC ratio (*) on Ea289 Chl / MIC ratio(*) on Ea289 Ery / MIC ratio (*) on Ea289 Nal: compound at MIC/4; for MIC ratio(*) on Ea289 Ery: erythromycin; for MIC ratio (*) on Ea289 Nal: nalidixic acid
Procedure: The process consists of treating the MDR bacteria with the compounds of the invention in the presence of antibiotics.
(§1) Susceptibilities to antibiotics and compounds were determined in microplates by broth dilution method, as previously described. Minimal Inhibitory Concentrations (MICs) were determined with an inoculum of 10^6 CFU in 200 μL of MH broth containing two-fold serial dilutions of each drug. […] All MIC determinations were repeated at least three times in independent experiments.
The MICs of chloramphenicol±test compounds (MIC/4) were determined by the micro-broth dilution method (9). All MIC determinations were repeated at least three times in independent experiments. The MIC ratio corresponds to the ratio of the MIC of an antibiotic alone to the MIC of the same antibiotic in the presence of the tested compound (at MIC/4).
The compounds listed in Table 2 were tested for their ability to decrease the chloramphenicol MIC of Ea289, an Enterobacter aerogenes MDR strain (1). Each compound was first tested at MIC/4. […] All MIC determinations were repeated at least three times in independent experiments.
(§2) For reminder, the MIC ratio corresponds to the ratio of the MIC of the assessed antibiotic alone to the MIC of the same antibiotic in the presence of the tested compound (at MIC/4).

Ea289ΔacrB (Ea294) = test: as above; assay type: cell-based, Enterobacter aerogenes; details: compound at MIC/4, Set 1; for MIC ratio(*) on Ea289ΔacrB Chl: chloramphenicol; for MIC ratio(*) on Ea289ΔacrB Ery: erythromycin; for MIC ratio(*) on Ea289ΔacrB Nal: nalidixic acid
Procedure: (§3) The Enterobacter aerogenes Ea289 strain is a Kans derivative of the MDR clinical isolate Ea27, the acrB mutant, EaEP294, was constructed from Ea289. Multidrug-resistant Salmonella enterica serovar Typhimurium DT104 strains (BN10055) was isolated from cattle in France, the isogenic acrB derivative mutant, BN10055ΔacrB, was constructed from BN10055. Strains were maintained at −80° C. in 25% (v/v) glycerol for cryoprotection. Bacteria were routinely grown in Mueller-Hinton (MH) broth at 37° C.
as §1
(§4) […] All MIC determinations were repeated at least three times in independent experiments. The MIC ratio corresponds to the ratio of the MIC of an antibiotic alone to the MIC of the same antibiotic in the presence of the tested compound (at MIC/4).
as §2

BN10055ΔacrB = test: as above; assay type: cell-based, Salmonella enterica serovar Typhimurium; details: compound at MIC/4, Set 1; for MIC ratio(*) on BN10055ΔacrB Chl: chloramphenicol; for MIC ratio(*) on BN10055ΔacrB Ery: erythromycin; for MIC ratio(*) on BN10055ΔacrB Nal: nalidixic acid
Procedure: as §3, §1, §4, §2

[2] = test system: Salmonella Thyphimurium MDR BN10055; test: as above; assay type: cell-based, Salmonella enterica serovar Typhimurium; details: compound at MIC/4; for MIC ratio (*) on BN10055 Chl: chloramphenicol; for MIC ratio (*) on BN10055 Dox: doxycycline; for MIC ratio(*) on BN10055 Ery: erythromycin; for MIC ratio (*) on BN10055 Nal: nalidixic acid
Procedure: as §3, §1, §4, §2

[3] = test system: strain IV2571223 - Escherichia coli pig (sensible); test: MIC of antibiotics in the presence and absence of test compound, veterinary strains; assay type: cell-based; set-up: MIC for strain IV2571223, Doxycycline in the presence of test compound: unit not given beside the values; details: compound at the Concentration (μM) (2-50)
Procedure: (§5) For each strain and each antibiotic, the MICs were determined in the presence and in the absence of one test compound.

[4] = test system: strain IV2571418 - Escherichia coli pig (resistant); test: as above; assay type: cell-based; set-up: MIC for strain IV2571418, Doxycycline in the presence of test compound: unit not given beside the values; details: compound at the Concentration (μM) (4-50)
Procedure: as §5

[5] = test system: strain IV2570060 - Escherichia coli cattle (sensible); test: as above; assay type: cell-based; details: compound at the Concentration (μM) (4-50)
Procedure: as §5

[6] = test system: strain IV2570533 - Escherichia coli cattle (resistant); test: as above; assay type: cell-based; details: compound at the Concentration (μM) (0.896-12.6)
Procedure: as §5

[7] = test system: Enterobacter aerogenes MDR Ea289; test: MIC of antibiotics ± test compound (MIC ratio), micro-broth dilution; assay type: cell-based; details: compound at MIC/4, Set 2; for MIC ratio (*) on Ea289 Dox: doxycycline; for MIC ratio (*) on Ea289 Nal: nalidixic acid

| SMILES | IC50 (CHO cells) [mM] | Effective concentration (mM) for a MIC ratio of chloramphenicol ≥ 8 on Ea289 [1] [mM] | efficient concentration, times lower than the control PAβN [1] | activity, effective concentration compared with PAβN to reach a MIC ratio of 8 [1] | MIC ratio (*) on Ea289 Chl ([1]; Set 1) | MIC ratio (*) on Ea289 Chl ([1]; Set 2) | MIC ratio(*) on Ea289 Ery ([1]; Set 1) | MIC ratio (*) on Ea289 Nal ([1]; Set 1) | MIC ratio(*) on Ea289ΔacrB Chl (Ea289ΔacrB (Ea294)) | MIC ratio(*) on Ea289ΔacrB Ery (Ea289ΔacrB (Ea294)) | MIC ratio(*) on Ea289ΔacrB Nal (Ea289ΔacrB (Ea294)) | MIC ratio(*) on BN10055ΔacrB Chl (BN10055ΔacrB) | MIC ratio(*) on BN10055ΔacrB Ery (BN10055ΔacrB) | MIC ratio(*) on BN10055ΔacrB Nal (BN10055ΔacrB) | MIC ratio (*) on BN10055 Chl ([2]; Set 1) | MIC ratio (*) on BN10055 Chl ([2]; Set 2) | MIC ratio (*) on BN10055 Dox ([2]; Set 2) | MIC ratio (*) on BN10055 Nal ([2]; Set 2) | MIC ratio (*) on Ea289 Dox [7] | MIC ratio (*) on Ea289 Nal [7] | also measured |
| --- | --- | --- | --- | --- | --- | --- | --- | --- | --- | --- | --- | --- | --- | --- | --- | --- | --- | --- | --- | --- | --- |
| CC(C)=CCCC(C)=CCNCCCNCCCCNCCCN (racemic) [Compound 10, {3-[4-(3-Amino-propylamino)-butylamino]-propyl}-(3,7-dimethyl-octa-2,6-dienyl)-amine] | 2.33 | 0.0078 | about 4.9 times | strong activity | 16 | 8 | 4 | 16 | 16 | 8 | 8 | 2 | 8 | 2 | 16 | 16 | 16 | 64 | 16 | 16 | IC50 on CHO cells, times higher than effective concentration (CHO cells; IC50 on CHO cells versus effective concentration on Ea289): about 300 times; MIC ratio(*) on BN10055 Ery ([2]; Set 1): 4; MIC ratio (*) on BN10055 Nal ([2]; Set 1): 64; MIC for strain IV2571223, Doxycycline in the presence of test compound [3]: 0.0625; MIC for strain IV2571223, Tylosine in the presence of test compound [3]: 4; MIC for strain IV2571418, Doxycycline in the presence of test compound [4]: 2; MIC for strain IV2571418, Tylosine in the presence of test compound [4]: 16; MIC for strain IV2570060, Doxycycline in the presence of test compound [5]: 0.125; MIC for strain IV2570060, Tylosine in the presence of test compound [5]: 16; MIC for strain IV2570533, Doxycycline in the presence of test compound [6]: 2; MIC for strain IV2570533, Tylosine in the presence of test compound [6]: 8 |
| CC(C)=CCC/C(C)=C/CC/C(C)=C/CNCCCN(CCCN)CCCN [Compound 9, {3-[Bis-(3-amino-propyl)-amino]-propyl}-(3,7,11-trimethyl-dodeca-2,6,10-trienyl)-amine] | 0.132 | 0.0078 | about 4.9 times | strong activity | 32 | 32 | 16-32 | 16 | 4 | 8 | 128 | 2 | 8 | 8 | 16 | 16 | 8 | 128 | 16 | 16 | MIC ratio(*) on BN10055 Ery ([2]; Set 1): 32; MIC ratio (*) on BN10055 Nal ([2]; Set 1): 128 |
| CC(C)=CCC/C(C)=C/CNCCCN(C)CCCN [Compound 13, {3-[(3-Amino-propyl)-methyl-amino]-propyl}-((E)-3,7-dimethyl-octa-2,6-dienyl)-amine] |  |  |  |  |  | 16 |  |  |  |  |  |  |  |  |  | 8-16 | 16 | 32 | 16 | 8 |  |
| CC(C)=CCC/C(C)=C/CC/C(C)=C/CNCCCN1CCN(CCCN)CC1 [Compound 15, {3-[4-(3-Amino-propyl)-piperazin-1-yl]-propyl}-((2E,6E)-3,7,11-trimethyl-dodeca-2,6,10-trienyl)-amine] |  |  |  |  |  | 8 |  |  |  |  |  |  |  |  |  | 8 | 32 | 64 | 128 | 32 | MIC for strain IV2571223, Doxycycline in the presence of test compound [3]: 0.0625; MIC for strain IV2571223, Tylosine in the presence of test compound [3]: 32; MIC for strain IV2571418, Doxycycline in the presence of test compound [4]: 4; MIC for strain IV2571418, Tylosine in the presence of test compound [4]: 32; MIC for strain IV2570060, Doxycycline in the presence of test compound [5]: 0.125; MIC for strain IV2570060, Tylosine in the presence of test compound [5]: 32; MIC for strain IV2570533, Doxycycline in the presence of test compound [6]: 2; MIC for strain IV2570533, Tylosine in the presence of test compound [6]: 32 |
| CC(C)=CCC/C(C)=C/CC/C(C)=C/CNCCCN [Compound 16] |  |  |  |  |  | 8-16 |  |  |  |  |  |  |  |  |  | 16-32 | 32 | 128 | 64 | 16 |  |
| CC(C)=CCC/C(C)=C/CC/C(C)=C/CNCCCCN [Compound 17] |  |  |  |  |  | 8-16 |  |  |  |  |  |  |  |  |  | 8 | 16 | 64 | 64 | 16 |  |
